The NIST ThermoML archive (doi:10.1016/j.jct.2009.01.014)
“And” between values parts separate entries of the source, which are not always exact repeats. Equal values may be shown once.

Assay: molar heat capacity at constant pressure
Settings: 101.33 kPa, Vacuum adiabatic calorimetry

[Al+3].[Al+3].[Co+2].[O-2].[O-2].[O-2].[O-2] [aluminium cobalt oxide]
Settings | molar heat capacity at constant pressure
4.72 K, Crystal 2 | 0.13 J/K/mol
5 K, Crystal 2 | 0.187 J/K/mol
5.71 K, Crystal 2 | 0.32 J/K/mol
6 K, Crystal 2 | 0.323 J/K/mol
6.45 K, Crystal 2 | 0.6 J/K/mol
6.71 K, Crystal 2 | 0.26 J/K/mol
6.88 K, Crystal 2 | 0.73 J/K/mol
7 K, Crystal 2 | 0.905 J/K/mol
7.21 K, Crystal 2 | 0.74 J/K/mol
7.25 K, Crystal 2 | 1.59 J/K/mol
7.46 K, Crystal 2 | 0.83 J/K/mol
7.65 K, Crystal 2 | 2.56 J/K/mol
7.66 K, Crystal 2 | 0.96 J/K/mol
7.81 K, Crystal 2 | 1.14 J/K/mol
7.85 K, Crystal 2 | 0.98 J/K/mol
7.94 K, Crystal 2 | 1.38 J/K/mol
8 K, Crystal 2 | 3.8 J/K/mol and 2.02 J/K/mol
8.05 K, Crystal 2 | 1.67 J/K/mol
8.17 K, Crystal 2 | 2 J/K/mol
8.29 K, Crystal 2 | 2.32 J/K/mol
8.32 K, Crystal 2 | 6.21 J/K/mol
8.47 K, Crystal 2 | 1.8 J/K/mol
8.62 K, Crystal 2 | 3.37 J/K/mol
8.66 K, Crystal 2 | 6.33 J/K/mol
8.71 K, Crystal 2 | 5.19 J/K/mol and 7.23 J/K/mol
8.98 K, Crystal 2 | 3.72 J/K/mol
9.28 K, Crystal 1 | 4.54 J/K/mol
9.32 K, Crystal 1 | 4.26 J/K/mol
9.33 K, Crystal 1 | 3.86 J/K/mol
9.95 K, Crystal 1 | 4.26 J/K/mol
10 K, Crystal 1 | 4.27 J/K/mol
10.45 K, Crystal 1 | 4.03 J/K/mol
10.5 K, Crystal 1 | 4.18 J/K/mol
10.76 K, Crystal 1 | 4.31 J/K/mol
11.38 K, Crystal 1 | 4.5 J/K/mol
11.87 K, Crystal 1 | 4.28 J/K/mol
12.04 K, Crystal 1 | 4.33 J/K/mol
12.41 K, Crystal 1 | 4.39 J/K/mol
12.96 K, Crystal 1 | 4.32 J/K/mol
13.36 K, Crystal 1 | 4.4 J/K/mol
13.69 K, Crystal 1 | 4.41 J/K/mol
13.73 K, Crystal 1 | 4.37 J/K/mol
14.57 K, Crystal 1 | 4.32 J/K/mol
14.84 K, Crystal 1 | 4.36 J/K/mol
15 K, Crystal 1 | 4.19 J/K/mol
15.02 K, Crystal 1 | 4.19 J/K/mol
15.35 K, Crystal 1 | 4.45 J/K/mol
16.08 K, Crystal 1 | 4.3 J/K/mol
16.27 K, Crystal 1 | 4.22 J/K/mol
16.99 K, Crystal 1 | 4.37 J/K/mol
17.59 K, Crystal 1 | 4.22 J/K/mol
17.64 K, Crystal 1 | 4.2 J/K/mol
18.61 K, Crystal 1 | 4.3 J/K/mol
18.8 K, Crystal 1 | 4.15 J/K/mol
19.9 K, Crystal 1 | 4.28 J/K/mol
20 K, Crystal 1 | 4.12 J/K/mol
20.2 K, Crystal 1 | 4.24 J/K/mol
20.34 K, Crystal 1 | 4.12 J/K/mol
20.92 K, Crystal 1 | 4.12 J/K/mol
21.76 K, Crystal 1 | 4.2 J/K/mol
21.88 K, Crystal 1 | 4.24 J/K/mol
22.65 K, Crystal 1 | 4.13 J/K/mol
23.29 K, Crystal 1 | 4.19 J/K/mol
24.79 K, Crystal 1 | 4.18 J/K/mol
24.8 K, Crystal 1 | 4.22 J/K/mol
25 K, Crystal 1 | 4.19 J/K/mol
26.22 K, Crystal 1 | 4.35 J/K/mol
26.96 K, Crystal 1 | 4.24 J/K/mol
27.5 K, Crystal 1 | 4.17 J/K/mol
28.68 K, Crystal 1 | 4.27 J/K/mol
29.17 K, Crystal 1 | 4.26 J/K/mol
29.76 K, Crystal 1 | 4.34 J/K/mol
30 K, Crystal 1 | 4.35 J/K/mol
31.39 K, Crystal 1 | 4.52 J/K/mol
31.42 K, Crystal 1 | 4.55 J/K/mol
33.59 K, Crystal 1 | 4.79 J/K/mol
34.14 K, Crystal 1 | 4.77 J/K/mol
35 K, Crystal 1 | 4.98 J/K/mol
35.82 K, Crystal 1 | 5.1 J/K/mol
36.43 K, Crystal 1 | 5.08 J/K/mol
38.1 K, Crystal 1 | 5.31 J/K/mol
38.48 K, Crystal 1 | 5.3 J/K/mol
40 K, Crystal 1 | 5.71 J/K/mol
40.31 K, Crystal 1 | 5.7 J/K/mol
40.44 K, Crystal 1 | 5.8 J/K/mol
42.02 K, Crystal 1 | 6.02 J/K/mol
42.79 K, Crystal 1 | 6.32 J/K/mol
43.71 K, Crystal 1 | 6.48 J/K/mol
45 K, Crystal 1 | 6.87 J/K/mol
45.17 K, Crystal 1 | 6.92 J/K/mol
45.43 K, Crystal 1 | 6.93 J/K/mol
47.17 K, Crystal 1 | 7.42 J/K/mol
47.58 K, Crystal 1 | 7.59 J/K/mol
48.91 K, Crystal 1 | 7.98 J/K/mol
50 K, Crystal 1 | 8.31 J/K/mol
50.03 K, Crystal 1 | 8.32 J/K/mol
50.67 K, Crystal 1 | 8.52 J/K/mol
52.44 K, Crystal 1 | 9.07 J/K/mol
52.51 K, Crystal 1 | 9.11 J/K/mol
54.22 K, Crystal 1 | 9.63 J/K/mol
55 K, Crystal 1 | 9.96 J/K/mol
55.03 K, Crystal 1 | 9.97 J/K/mol
56.02 K, Crystal 1 | 10.33 J/K/mol
57.57 K, Crystal 1 | 10.87 J/K/mol
57.82 K, Crystal 1 | 10.96 J/K/mol
59.64 K, Crystal 1 | 11.67 J/K/mol
60 K, Crystal 1 | 11.79 J/K/mol
60.15 K, Crystal 1 | 11.85 J/K/mol
61.46 K, Crystal 1 | 12.35 J/K/mol
62.75 K, Crystal 1 | 12.88 J/K/mol
63.3 K, Crystal 1 | 13.11 J/K/mol
65 K, Crystal 1 | 13.79 J/K/mol
65.14 K, Crystal 1 | 13.85 J/K/mol
65.38 K, Crystal 1 | 13.94 J/K/mol
66.99 K, Crystal 1 | 14.6 J/K/mol
68.03 K, Crystal 1 | 15.06 J/K/mol
68.85 K, Crystal 1 | 15.41 J/K/mol
70 K, Crystal 1 | 15.92 J/K/mol
70.7 K, Crystal 1 | 16.23 J/K/mol
70.71 K, Crystal 1 | 16.22 J/K/mol
72.59 K, Crystal 1 | 17.07 J/K/mol
73.39 K, Crystal 1 | 17.44 J/K/mol
74.46 K, Crystal 1 | 17.93 J/K/mol
75 K, Crystal 1 | 18.18 J/K/mol
76.1 K, Crystal 1 | 18.69 J/K/mol
76.35 K, Crystal 1 | 18.81 J/K/mol
78.23 K, Crystal 1 | 19.67 J/K/mol
78.83 K, Crystal 1 | 19.98 J/K/mol
80 K, Crystal 1 | 20.58 J/K/mol
80.13 K, Crystal 1 | 20.6 J/K/mol
81.57 K, Crystal 1 | 21.31 J/K/mol
82.03 K, Crystal 1 | 21.53 J/K/mol
83.93 K, Crystal 1 | 22.47 J/K/mol
84.33 K, Crystal 1 | 22.66 J/K/mol
85 K, Crystal 1 | 23 J/K/mol
85.84 K, Crystal 1 | 23.42 J/K/mol
86.76 K, Crystal 1 | 23.89 J/K/mol
87.1 K, Crystal 1 | 24.07 J/K/mol
87.75 K, Crystal 1 | 24.35 J/K/mol
89.66 K, Crystal 1 | 25.35 J/K/mol
89.88 K, Crystal 1 | 25.48 J/K/mol
90 K, Crystal 1 | 25.54 J/K/mol
90.38 K, Crystal 1 | 25.72 J/K/mol
91.58 K, Crystal 1 | 26.35 J/K/mol
92.68 K, Crystal 1 | 26.93 J/K/mol
93.5 K, Crystal 1 | 27.35 J/K/mol
94.03 K, Crystal 1 | 27.61 J/K/mol
95 K, Crystal 1 | 28.14 J/K/mol
95.42 K, Crystal 1 | 28.36 J/K/mol
95.49 K, Crystal 1 | 28.4 J/K/mol
97.35 K, Crystal 1 | 29.35 J/K/mol
97.7 K, Crystal 1 | 29.56 J/K/mol
98.31 K, Crystal 1 | 29.91 J/K/mol
99.28 K, Crystal 1 | 30.41 J/K/mol
100 K, Crystal 1 | 30.76 J/K/mol
101.14 K, Crystal 1 | 31.29 J/K/mol
101.4 K, Crystal 1 | 31.39 J/K/mol
105 K, Crystal 1 | 33.58 J/K/mol
105.11 K, Crystal 1 | 33.64 J/K/mol
108.84 K, Crystal 1 | 35.84 J/K/mol
110 K, Crystal 1 | 36.47 J/K/mol
112.59 K, Crystal 1 | 37.85 J/K/mol
116.35 K, Crystal 1 | 39.89 J/K/mol
118.19 K, Crystal 1 | 40.87 J/K/mol
120 K, Crystal 1 | 41.53 J/K/mol
120.13 K, Crystal 1 | 41.61 J/K/mol
121.04 K, Crystal 1 | 42.24 J/K/mol
123.91 K, Crystal 1 | 44.18 J/K/mol and 44.16 J/K/mol
126.79 K, Crystal 1 | 45.8 J/K/mol
127.71 K, Crystal 1 | 46.35 J/K/mol
129.67 K, Crystal 1 | 47.46 J/K/mol
130 K, Crystal 1 | 47.65 J/K/mol
131.52 K, Crystal 1 | 48.53 J/K/mol
132.55 K, Crystal 1 | 49.08 J/K/mol
135.33 K, Crystal 1 | 50.7 J/K/mol
135.44 K, Crystal 1 | 50.72 J/K/mol
138.34 K, Crystal 1 | 52.33 J/K/mol
139.16 K, Crystal 1 | 52.77 J/K/mol
140 K, Crystal 1 | 53.26 J/K/mol
141.23 K, Crystal 1 | 53.98 J/K/mol
142.99 K, Crystal 1 | 55.02 J/K/mol
144.14 K, Crystal 1 | 55.61 J/K/mol
